Structures are written as SMILES.

In general, EC50 refers to the concentration needed to bring the measured effect to its halfway point.

human APJ receptor, sequence (P35414 whole entry): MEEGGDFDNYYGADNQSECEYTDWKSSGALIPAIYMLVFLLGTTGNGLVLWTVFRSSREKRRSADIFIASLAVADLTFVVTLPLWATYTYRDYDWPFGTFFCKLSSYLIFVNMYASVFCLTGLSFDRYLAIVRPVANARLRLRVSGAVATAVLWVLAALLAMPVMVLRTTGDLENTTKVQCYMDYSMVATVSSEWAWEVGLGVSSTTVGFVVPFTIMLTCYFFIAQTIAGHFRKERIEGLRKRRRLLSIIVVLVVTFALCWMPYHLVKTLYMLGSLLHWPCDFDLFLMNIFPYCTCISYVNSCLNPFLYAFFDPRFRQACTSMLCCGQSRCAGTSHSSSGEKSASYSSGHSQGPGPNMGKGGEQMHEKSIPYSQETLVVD

One experiment concerns the target human APJ receptor (Homo sapiens (Human), UniProt P35414). The experiment can be described thus: Intracellular cAMP accumulation assay (APJ hcAMP, HTRF). The format is cell-based. The note with it: HEK293 cells stably expressing human APJ receptor; inhibition of forskolin-mediated cAMP production; read-out: Human APJ cAMP EC50 Potency range. The procedure: Intracellular cAMP Accumulation Assay
HEK293 cells stably expressing human APJ receptor were used to assess the activity of compounds. Cultured cells were detached and resuspended in the cAMP Homogeneous Time-Resolved Fluorescence (HTRF) assay buffer (Cisbio cat; #62AM4PEJ). The assay was performed in 384-well assay plates (Perkin-Elmer; cat #6008289) according to assay protocol provided by the manufacturer. Serial dilutions of a compound together with assay buffer containing […] and 2 μM forskolin were added to each well containing 5,000 cells and incubated for 30 minutes at room temperature. Subsequently, cAMP D2 reagent was added in the lysis buffer followed by the EuK antibody (Cisbio; cat #62AM4PEJ) and incubated for 60 min. The fluorescence emission ratio was measured using fluorometer. The intracellular cAMP concentrations (compound-stimulated inhibition of forskolin-mediated cAMP production) were calculated by extrapolation from a standard curve using known cAMP concentrations. The EC50 values were obtained by fitting the data to a sigmoidal concentration-response curve with variable slope.
For orientation: Changes in cAMP serve as a functional read-out for many G protein-coupled receptors.
Regarding `CCCCc1nc(O)c(-c2nnc(Cc3ccc(Cl)cc3)o2)c(O)c1-c1c(OC)ccc(F)c1OC` (single isomer, unassigned) [Example 218, 6-butyl-3-{5-[(4-chlorophenyl)methyl]-1,3,4-oxadiazol-2-yl}-5-(3-fluoro-2,6-dimethoxyphenyl)pyridine-2,4-diol], the EC50 was in the range of 10 to 100 nM.
On to `CCCCc1nc(O)c(-c2nnc(Cc3ccc(Cl)cc3)o2)c(O)c1-c1c(OC)ccc(F)c1OC` (single isomer, unassigned) [Example 219, 6-butyl-3-{5-[(4-chlorophenyl)methyl]-1,3,4-oxadiazol-2-yl}-5-(3-fluoro-2,6-dimethoxyphenyl)pyridine-2,4-diol], for which the EC50 fell in the range of 0.01 to 10 nM.
For `CCOCc1nc(O)c(-c2nnc(Cc3ccc(Cl)cc3)o2)c(O)c1-c1c(O)cccc1OC` (single isomer, unassigned) [Example 222, 3-{5-[(4-chlorophenyl)methyl]-1,3,4-oxadiazol-2-yl}-6-(ethoxymethyl)-5-(2-hydroxy-6-methoxyphenyl)pyridine-2,4-diol], the EC50 was 0.01 to 10 nM.
For `CCOCc1nc(O)c(-c2nnc(Cc3ccc(Cl)cc3)o2)c(O)c1-c1c(O)cccc1OC` (single isomer, unassigned) [Example 223, 3-{5-[(4-chlorophenyl)methyl]-1,3,4-oxadiazol-2-yl}-6-(ethoxymethyl)-5-(2-hydroxy-6-methoxyphenyl)pyridine-2,4-diol], the EC50 lay in the range of 10 to 100 nM.

The same experiment, now with this note: HEK293 cells stably expressing human APJ receptor; inhibition of forskolin-mediated cAMP production; read-out: hAPJ cAMP EC50 Potency range.
For the compound `CCCCc1nc(O)c(-c2nnc(Cc3noc4ccccc34)o2)c(O)c1-c1c(OC)ccc(F)c1OC` (single isomer, unassigned; isomer 1) [Example 220, 3-[5-(1,2-benzoxazol-3-ylmethyl)-1,3,4-oxadiazol-2-yl]-6-butyl-5-(3-fluoro-2,6-dimethoxyphenyl) pyridine-2,4-diol (isomer 1)], the EC50 fell in the range of 10 to 100 nM.
For `CCCCc1nc(O)c(-c2nnc(Cc3noc4ccccc34)o2)c(O)c1-c1c(OC)ccc(F)c1OC` (single isomer, unassigned; isomer 2) [Example 221, 3-[5-(1,2-benzoxazol-3-ylmethyl)-1,3,4-oxadiazol-2-yl]-6-butyl-5-(3-fluoro-2,6-dimethoxyphenyl) pyridine-2,4-diol (isomer 2)], the EC50 was in the range of 0.01 to 10 nM.
`CCCCc1nc(O)c(-c2nnc(Cc3ccccc3)o2)c(O)c1-c1c(OC)cc(C)cc1OC` [Example 2, 3-(5-benzyl-1,3,4-oxadiazol-2-yl)-6-butyl-5-(2,6-dimethoxy-4-methylphenyl) pyridine-2,4-diol]: the EC50 lay in the range of 100 to 300 nM.
Consider `CCCCc1nc(O)c(-c2nnc(Cc3ccncc3)o2)c(O)c1-c1c(OC)cccc1OC` [Example 3, 6-butyl-5-(2,6-dimethoxyphenyl)-3-[5-(pyridin-4-ylmethyl)-1,3,4-oxadiazol-2-yl]pyridine-2,4-diol], for which the EC50 is 10 to 100 nM.
Still for that read-out and setting: the result for `CCCCc1nc(O)c(-c2nnc(CCc3ccccc3)o2)c(O)c1-c1c(OC)cccc1OC` [Example 4, 6-butyl-5-(2,6-dimethoxyphenyl)-3-[5-(2-phenylethyl)-1,3,4-oxadiazol-2-yl]pyridine-2,4-diol] reads 10 to 100 nM; that for `CCCCc1nc(O)c(-c2nnc(Cc3ccccc3Cl)o2)c(O)c1-c1c(OC)cccc1OC` [Example 5, 6-butyl-3-{5-[(2-chlorophenyl)methyl]-1,3,4-oxadiazol-2-yl}-5-(2,6-dimethoxyphenyl) pyridine-2,4-diol], 10 to 100 nM; that for `CCCCc1nc(O)c(-c2nnc(Cc3ccccc3OC)o2)c(O)c1-c1c(OC)cccc1OC` [Example 6, 6-butyl-5-(2,6-dimethoxyphenyl)-3-{5-[(2-methoxyphenyl)methyl]-1,3,4-oxadiazol-2-yl}pyridine-2,4-diol], 10 to 100 nM.
Regarding `CCCCc1nc(O)c(-c2nnc(Cc3cccc(OC)c3)o2)c(O)c1-c1c(OC)cccc1OC` [Example 7, 6-butyl-5-(2,6-dimethoxyphenyl)-3-{5-[(3-methoxyphenyl)methyl]-1,3,4-oxadiazol-2-yl}pyridine-2,4-diol], the EC50 fell in the range of 0.01 to 10 nM.
Regarding `CCCCc1nc(O)c(-c2nnc(Cc3ccc(Cl)cc3)o2)c(O)c1-c1c(OC)cccc1OC` [Example 8, 6-butyl-3-{5-[(4-chlorophenyl)methyl]-1,3,4-oxadiazol-2-yl}-5-(2,6-dimethoxyphenyl) pyridine-2,4-diol], the EC50 fell in the range of 0.01 to 10 nM.
With `CCCCc1nc(O)c(-c2nnc(Cc3ccc(OC)cc3)o2)c(O)c1-c1c(OC)cccc1OC` [Example 9, 6-butyl-5-(2,6-dimethoxyphenyl)-3-{5-[(4-methoxyphenyl)methyl]-1,3,4-oxadiazol-2-yl}pyridine-2,4-diol], the EC50 lay in the range of 0.01 to 10 nM.
In the case of `CCCCc1nc(O)c(-c2nnc(-c3cccc(Cl)c3)o2)c(O)c1-c1c(OC)cccc1OC` [Example 10, 6-butyl-3-[5-(3-chlorophenyl)-1,3,4-oxadiazol-2-yl]-5-(2,6-dimethoxyphenyl) pyridine-2,4-diol], the EC50 was in the range of 10 to 100 nM.
Turning to `CCCCc1nc(O)c(-c2nnc(-c3ccccc3Cl)o2)c(O)c1-c1c(OC)cccc1OC` [Example 11, 6-butyl-3-[5-(2-chlorophenyl)-1,3,4-oxadiazol-2-yl]-5-(2,6-dimethoxyphenyl) pyridine-2,4-diol], the EC50 lay within 100 to 300 nM.
As for `CCCCc1nc(O)c(-c2nnc(-c3cnccn3)o2)c(O)c1-c1c(OC)cccc1OC` [Example 12, 6-butyl-5-(2,6-dimethoxyphenyl)-3-[5-(pyrazin-2-yl)-1,3,4-oxadiazol-2-yl]pyridine-2,4-diol], the EC50 fell in the range of 100 to 300 nM.
Turning to `CCCCc1nc(O)c(-c2nnc(C3(c4ccccc4)CC3)o2)c(O)c1-c1c(OC)cccc1OC` [Example 13, 6-butyl-5-(2,6-dimethoxyphenyl)-3-[5-(1-phenylcyclopropyl)-1,3,4-oxadiazol-2-yl]pyridine-2,4-diol], the EC50 was 10 to 100 nM.
Turning to `CCCCc1nc(O)c(-c2nnc(C3CC3)o2)c(O)c1-c1c(OC)cccc1OC` [Example 14, 6-butyl-3-(5-cyclopropyl-1,3,4-oxadiazol-2-yl)-5-(2,6-dimethoxyphenyl) pyridine-2,4-diol], the EC50 lay within 100 to 300 nM.
Regarding `CCCCc1nc(O)c(-c2nnc(C(C)(C)c3ccccc3)o2)c(O)c1-c1c(OC)cccc1OC` [Example 15, 6-butyl-5-(2,6-dimethoxyphenyl)-3-[5-(2-phenylpropan-2-yl)-1,3,4-oxadiazol-2-yl]pyridine-2,4-diol], the EC50 lay in the range of 0.01 to 10 nM.
Regarding `CCCCc1nc(O)c(-c2nnc(COc3ccccc3)o2)c(O)c1-c1c(OC)cccc1OC` [Example 17, 6-butyl-5-(2,6-dimethoxyphenyl)-3-[5-(phenoxymethyl)-1,3,4-oxadiazol-2-yl]pyridine-2,4-diol], the EC50 lay in the range of 10 to 100 nM.
`C=CCCc1nc(O)c(-c2nnc(Cc3ccccc3)o2)c(O)c1-c1c(OC)cccc1OC` [Example 18, 3-(5-benzyl-1,3,4-oxadiazol-2-yl)-6-(but-3-en-1-yl)-5-(2,6-dimethoxyphenyl) pyridine-2,4-diol]: the concentration giving a half-maximal response (EC50) was in the range of 10 to 100 nM.
The same measure, in the same setting: the value for `CCCCc1nc(O)c(-c2nnc(-c3cc(C)[nH]n3)o2)c(O)c1-c1c(OC)cccc1OC` [Example 19, 6-butyl-5-(2,6-dimethoxyphenyl)-3-[5-(5-methyl-1H-pyrazol-3-yl)-1,3,4-oxadiazol-2-yl]pyridine-2,4-diol] was 100 to 300 nM; that for `CCCCc1nc(O)c(-c2nnc(Cc3noc4ccccc34)o2)c(O)c1-c1c(OC)cccc1OC` [Example 20, 3-[5-(1,2-benzoxazol-3-ylmethyl)-1,3,4-oxadiazol-2-yl]-6-butyl-5-(2,6-dimethoxyphenyl) pyridine-2,4-diol] was 0.01 to 10 nM; that for `CCCCc1nc(O)c(-c2nnc(Cc3cnccn3)o2)c(O)c1-c1c(OC)cccc1OC` [Example 21, 6-butyl-5-(2,6-dimethoxyphenyl)-3-[5-(pyrazin-2-ylmethyl)-1,3,4-oxadiazol-2-yl]pyridine-2,4-diol] was 0.01 to 10 nM.
On to `CCCCc1nc(O)c(-c2nnc(Cc3cncnc3)o2)c(O)c1-c1c(OC)cccc1OC` [Example 22, 6-butyl-5-(2,6-dimethoxyphenyl)-3-[5-(pyrimidin-5-ylmethyl)-1,3,4-oxadiazol-2-yl]pyridine-2,4-diol], for which the EC50 is 10 to 100 nM.
Same read-out and setting: the value for `CCCCc1nc(O)c(-c2nnc(Cc3cccc(Cl)c3)o2)c(O)c1-c1c(OC)cccc1OC` [Example 23, 6-butyl-3-{5-[(3-chlorophenyl)methyl]-1,3,4-oxadiazol-2-yl}-5-(2,6-dimethoxyphenyl) pyridine-2,4-diol] was 0.01 to 10 nM; that for `CCCCc1nc(O)c(-c2nnc(C(F)(F)c3ccccc3)o2)c(O)c1-c1c(OC)cccc1OC` [Example 24, 6-butyl-3-{5-[difluoro(phenyl)methyl]-1,3,4-oxadiazol-2-yl}-5-(2,6-dimethoxyphenyl) pyridine-2,4-diol] was 10 to 100 nM; that for `CCCCc1nc(O)c(-c2nnc(Cc3nc4ccccc4o3)o2)c(O)c1-c1c(OC)cccc1OC` [Example 25, 3-[5-(1,3-benzoxazol-2-ylmethyl)-1,3,4-oxadiazol-2-yl]-6-butyl-5-(2,6-dimethoxyphenyl) pyridine-2,4-diol] was 0.01 to 10 nM.
With `CCCCc1nc(O)c(-c2nnc(Cc3noc4ccccc34)o2)c(O)c1-c1c(OC)cc(C)cc1OC` [Example 26, 3-[5-(1,2-benzoxazol-3-ylmethyl)-1,3,4-oxadiazol-2-yl]-6-butyl-5-(2,6-dimethoxy-4-methylphenyl) pyridine-2,4-diol], the EC50 was 0.01 to 10 nM.
